Assay results: EPA's ToxRefDB 2

Assays:
rat [1] = settings: Sub-acute repeat dose toxicity, Oral, Gavage/Intubation, dose end: 7 day, group: systemic
rat [2] = settings: Sub-acute repeat dose toxicity; Oral; Gavage/Intubation; dose end: 14 day; group: systemic; systemic / in life observation / clinical signs / convulsions + systemic / in life observation / clinical signs / reduced activity + …
rat [3] = settings: Sub-acute repeat dose toxicity, sprague dawley, Oral, Gavage/Intubation, dose end: 14 day, group: systemic
dog [4] = settings: Sub-acute repeat dose toxicity, beagle, Oral, Gavage/Intubation, dose end: 14 day, group: systemic
rat [5] = settings: Sub-acute repeat dose toxicity, sprague dawley, Oral, Gavage/Intubation, dose end: 30 day, group: systemic
rabbit = settings: Prenatal developmental toxicity study; Oral; Gavage/Intubation; dose end: 19 GD; group: maternal; systemic / in life observation / clinical signs / abnormal feces + systemic / in life observation / clinical signs / red or crusty deposits …
rat [6] = settings: Sub-acute repeat dose toxicity; Oral; Gavage/Intubation; dose end: 14 day; group: systemic; systemic / in life observation / clinical signs / ataxia + systemic / in life observation / clinical signs / urine staining - perineum + …
primate = settings: Subchronic oral toxicity in nonrodent, Gavage/Intubation, dose end: 91 day, group: systemic, systemic / in life observation / body weight / body weight + systemic / in life observation / clinical signs / [other] + systemic / in life …
rat [7] = settings: Sub-acute repeat dose toxicity; wistar; Oral; Gavage/Intubation; dose end: 7 day; group: systemic; systemic / clinical chemistry / [other] / [other] + systemic / pathology microscopic / blood / vasculitis
rat [8] = settings: Fertility (Segment I), Oral, Gavage/Intubation, dose end: 1 generation, group: parental
rat [9] = settings: Subchronic oral toxicity in rodents, sprague dawley, Feed, dose end: 90 day, group: systemic
mouse [10] = settings: Subchronic oral toxicity in rodents, other, Feed, dose end: 90 day, group: systemic
rat [11] = settings: Subchronic oral toxicity in rodents, sprague dawley, Feed, dose end: 93 day, group: systemic
dog [12] = settings: Chronic toxicity, beagle, Oral, Capsule, dose end: 12 month, group: systemic
rat [13] = settings: Subchronic oral toxicity in rodents, sprague dawley, Feed, dose end: 90 day, group: systemic, systemic / in life observation / body weight / body weight + systemic / in life observation / body weight / body weight gain + systemic / in…
rat [14] = settings: Prenatal developmental toxicity study, sprague dawley, Oral, Gavage/Intubation, dose end: 15 GD
rat [15] = settings: Multigenerational reproductive toxicity study, sprague dawley, Oral, Feed, dose end: 2 generation; for LOAEL: systemic / organ weight / brain / nos
rat [16] = settings: Subchronic oral toxicity in rodents, sprague dawley, Feed, dose end: 90 day, group: systemic; remark: listed apart in the source
mouse [17] = settings: Carcinogenicity, cd1, Oral, Feed, dose end: 81 week, group: systemic
rat [18] = settings: Combined chronic toxicity/carcinogenicity, sprague dawley, Oral, [Not Specified], dose end: 2 year, group: systemic
mouse [19] = settings: Subchronic oral toxicity in rodents, b6c3f1, Gavage/Intubation, dose end: 13 week, group: systemic
mouse [20] = settings: Carcinogenicity, b6c3f1, Oral, Gavage/Intubation, dose end: 102 week, group: systemic
rat [21] = settings: Subchronic oral toxicity in rodents, fischer, Gavage/Intubation, dose end: 13 week, group: systemic
rat [22] = settings: Carcinogenicity, fischer, Oral, Gavage/Intubation, dose end: 102 week, group: systemic
[23] = systemic / clinical chemistry / cholesterol / cholesterol + systemic / clinical chemistry / gamma glutamyl transferase (ggt) / gamma …
[24] = systemic / clinical chemistry / [other] / [other] + systemic / in life observation / body weight / body weight gain + systemic / in life …
[25] = systemic / pathology microscopic / liver / fatty change + systemic / pathology microscopic / liver / hypertrophy
[26] = systemic / in life observation / clinical signs / abnormal feces + systemic / in life observation / clinical signs / arrhythmia
[27] = systemic / in life observation / clinical signs / abnormal feces + systemic / in life observation / clinical signs / arrhythmia + systemic…
[28] = systemic / clinical chemistry / aspartate aminotransferase (ast/sgot) / aspartate aminotransferase (ast/sgot) + systemic / clinical …
[29] = systemic / in life observation / clinical signs / abnormal feces + systemic / in life observation / clinical signs / convulsions + systemic…
[30] = systemic / in life observation / clinical signs / convulsions + systemic / in life observation / clinical signs / salivation
[31] = systemic / organ weight / liver / relative to body weight + systemic / pathology microscopic / liver / cytoplasmic alteration + systemic / …
[32] = systemic / organ weight / liver / relative to brain weight + systemic / pathology gross / liver / [other] + systemic / pathology microscopic…
[33] = systemic / pathology microscopic / spleen / pigmentation
[34] = systemic / clinical chemistry / cholesterol / cholesterol + systemic / organ weight / liver / absolute + systemic / organ weight / liver / …
[35] = systemic / pathology gross / liver / enlarged
[36] = systemic / clinical chemistry / alkaline phosphatase (alp/alk) / alkaline phosphatase (alp/alk) + systemic / clinical chemistry / …
[37] = systemic / clinical chemistry / alkaline phosphatase (alp/alk) / alkaline phosphatase (alp/alk) + systemic / in life observation / clinical …
[38] = group: developmental, developmental / developmental malformation / bone / incomplete ossification + systemic / in life observation / body weight / fetal weight
[39] = group: maternal, systemic / in life observation / body weight / body weight gain + systemic / in life observation / food consumption / food consumption
[40] = group: offspring, systemic / organ weight / brain / nos + systemic / in life observation / body weight / offspring (pup) weight + systemic / organ weight / …
[41] = systemic / organ weight / liver / absolute + systemic / organ weight / liver / relative to body weight + systemic / organ weight / liver / …
[42] = systemic / pathology gross / liver / [other] + systemic / pathology microscopic / thyroid gland / colloid content
[43] = systemic / in life observation / body weight / body weight + systemic / in life observation / body weight / body weight gain + systemic / in…
[44] = systemic / in life observation / body weight / body weight + systemic / pathology microscopic / liver / granuloma + systemic / pathology …
[45] = systemic / pathology microscopic / kidney / cytomegaly + systemic / pathology microscopic / thyroid gland / hyperplasia
[46] = systemic / pathology microscopic / kidney / cytomegaly + systemic / pathology microscopic / thyroid gland / hyperplasia + systemic / …
[47] = systemic / in life observation / body weight / body weight + systemic / in life observation / mortality / mortality + systemic / pathology …
[48] = systemic / pathology microscopic / intestine large / adenocarcinoma + systemic / pathology microscopic / intestine large / polyp adenomatous…
[49] = systemic / pathology microscopic / kidney / cytomegaly + systemic / pathology microscopic / liver / necrosis

## CC[C@H]1CC[C@H](NCc2cc3c(cc2OC)[C@H]2C[C@H]2C(=O)N3C)[C@H](c2ccccc2)N1
Rat [1]; [23]
  LOAEL: > 100 mg/kg/day
  NEL: 3 mg/kg/day
  NOAEL: ≥ 100 mg/kg/day
Rat [1]; systemic / organ weight / liver / absolute
  LEL: 30 mg/kg/day
Rat [2]
  LEL: 100 mg/kg/day
  LOAEL: > 100 mg/kg/day
  NOAEL: ≥ 100 mg/kg/day
Rat [3]; [24]
  LOAEL: > 100 mg/kg/day
  NOAEL: ≥ 100 mg/kg/day
Rat [3]; [25]
  LEL: 6 mg/kg/day
  NEL: < 6 mg/kg/day
Dog [4]; [26]
  LEL: 3 mg/kg/day
  NEL: < 3 mg/kg/day
Dog [4]; [27]
  LOAEL: > 15 mg/kg/day
  NOAEL: ≥ 15 mg/kg/day
Rat [5]; [28]
  LOAEL: > 100 mg/kg/day
  NEL: 3 mg/kg/day
  NOAEL: ≥ 100 mg/kg/day
Rat [5]; systemic / in life observation / clinical signs / salivation + systemic / organ weight / liver / absolute
  LEL: 30 mg/kg/day

## Cc1cc2c3c(c1)C(c1ccccc1)=N[C@@H](NC(=O)c1ccncc1)C(=O)N3CC2 [CI-1018]
rabbit
  LOAEL: > 100 mg/kg/day
  NEL: 10 mg/kg/day
  NOAEL: ≥ 100 mg/kg/day
Rat [6]
  LEL: 1000 mg/kg/day
  LOAEL: > 1000 mg/kg/day
  NEL: 300 mg/kg/day
  NOAEL: ≥ 1000 mg/kg/day
primate
  LEL: 740 mg/kg/day
  LOAEL: > 740 mg/kg/day
  NEL: < 740 mg/kg/day
  NOAEL: ≥ 740 mg/kg/day
Rat [7]
  LEL: 375 mg/kg/day
  LOAEL: > 750 mg/kg/day
  NEL: 75 mg/kg/day
  NOAEL: ≥ 750 mg/kg/day
Rat [8]; [29]
  LOAEL: > 300 mg/kg/day
  NOAEL: ≥ 300 mg/kg/day
Rat [8]; [30]
  LEL: 30 mg/kg/day
  NEL: < 30 mg/kg/day

## CSC1=N[C@@](C)(c2ccccc2)C(=O)N1Nc1ccccc1 [Fenamidone]
Rat [9]; systemic / clinical chemistry / aspartate aminotransferase (ast/sgot) / aspartate aminotransferase (ast/sgot)
  LEL: 10.4 mg/kg/day
Rat [9]; systemic / organ weight / liver / relative to body weight + systemic / pathology microscopic / liver / cytoplasmic alteration
  LOAEL: 68.3 mg/kg/day
Rat [9]; [31]
  NEL: 4.05 mg/kg/day
  NOAEL: 10.4 mg/kg/day
Mouse [10]; [32]
  LOAEL: 220 mg/kg/day
  NOAEL: 44.5 mg/kg/day
Mouse [10]; [33]
  LEL: 11.3 mg/kg/day
  NEL: < 11.3 mg/kg/day
Rat [11]; [34]
  LOAEL: 93.3 mg/kg/day
  NOAEL: 9.4 mg/kg/day
Rat [11]; [35]
  LEL: 9.4 mg/kg/day
  NEL: < 9.4 mg/kg/day
Dog [12]; [36]
  LEL: 1000 mg/kg/day
  LOAEL: 1000 mg/kg/day
Dog [12]; [37]
  NEL: 100 mg/kg/day
  NOAEL: 100 mg/kg/day
Rat [13]
  LEL: 305 mg/kg/day
  LOAEL: 305 mg/kg/day
  NEL: 29.7 mg/kg/day
  NOAEL: 29.7 mg/kg/day
Rat [14]; [38]
  LEL: 1000 mg/kg/day
  LOAEL: 1000 mg/kg/day
  NEL: 150 mg/kg/day
  NOAEL: 150 mg/kg/day
Rat [14]; [39]
  LEL: 1000 mg/kg/day
  LOAEL: 1000 mg/kg/day
  NEL: 150 mg/kg/day
  NOAEL: 150 mg/kg/day
Rat [15]; group: offspring
  LOAEL: 89.2 mg/kg/day
Rat [15]; group: offspring, systemic / organ weight / brain / nos + systemic / in life observation / body weight / offspring (pup) weight
  LEL: 89.2 mg/kg/day
Rat [15]; [40]
  NEL: 5.45 mg/kg/day
  NOAEL: 5.45 mg/kg/day
Rat [15]; group: parental, systemic / in life observation / food consumption / food consumption
  LEL: 63.8 mg/kg/day
Rat [15]; group: parental, systemic / in life observation / food consumption / food consumption + systemic / in life observation / body weight / body weight + systemic…
  NEL: 3.9 mg/kg/day
Rat [15]; group: parental
  LOAEL: 89.2 mg/kg/day
Rat [15]; group: parental, systemic / organ weight / brain / nos + systemic / in life observation / body weight / body weight + systemic / organ weight / liver / …
  NOAEL: 5.45 mg/kg/day
Rat [16]; [41]
  LOAEL: 32.9 mg/kg/day
  NOAEL: 6.42 mg/kg/day
Rat [16]; [42]
  LEL: 6.42 mg/kg/day
  NEL: < 6.42 mg/kg/day
Mouse [17]; [43]
  LOAEL: 526 mg/kg/day
  NEL: 9.5 mg/kg/day
  NOAEL: 47.5 mg/kg/day
Mouse [17]; systemic / organ weight / liver / nos
  LEL: 47.5 mg/kg/day
Rat [18]; systemic / organ weight / uterus / absolute + systemic / organ weight / uterus / relative to body weight
  NEL: 335 mg/kg/day
Rat [18]; systemic / pathology microscopic / thyroid gland / hyperplasia
  LOAEL: 7.07 mg/kg/day
Rat [18]; systemic / pathology microscopic / thyroid gland / hyperplasia + systemic / clinical chemistry / alanine aminotransferase (alt/sgpt) / …
  NOAEL: 2.83 mg/kg/day

## ClC(Cl)Br [Bromodichloromethane]
Mouse [19]; systemic / in life observation / body weight / body weight + systemic / pathology microscopic / kidney / necrosis
  LEL: 100 mg/kg/day
Mouse [19]; [44]
  LOAEL: > 400 mg/kg/day
  NOAEL: ≥ 400 mg/kg/day
Mouse [20]; [45]
  LOAEL: 25 mg/kg/day
  NOAEL: < 25 mg/kg/day
Mouse [20]; [46]
  LEL: 25 mg/kg/day
  NEL: < 25 mg/kg/day
Rat [21]; systemic / in life observation / body weight / body weight
  LEL: 150 mg/kg/day
Rat [21]; [47]
  LOAEL: > 300 mg/kg/day
  NEL: 75 mg/kg/day
  NOAEL: ≥ 300 mg/kg/day
Rat [22]; [48]
  LOAEL: > 100 mg/kg/day
  NOAEL: ≥ 100 mg/kg/day
Rat [22]; [49]
  LEL: 50 mg/kg/day
  NEL: < 50 mg/kg/day
